Experimental data taken from patent US4250162A, “Protein binding method” (priority 1979, dated 1981).
Values joined by “and” are separate entries in the source; they are usually repeats but may differ in a detail not shown here. Identical values can stand only once.

What was measured:
[1] = test system: cortisol rabbit antiserum; experiment: Effect of organic solvents on antiserum-coated polypropylene tubes: residual binding of radioiodinated tracer, cortisol antiserum; conditions: tracer bound after solvent 3 hours at 50° C., tracer 45 minutes at 37° C.
Experimental: (§1) 1 ml of petroleum ether, benzene, ether, ethyl acetate or acetone was added to a selection of cortisol, thyroxine, diphenylhydantoin and estriol rabbit antiserum-coated polypropylene tubes. The solvent level in the tubes was sufficient to immerse the antiserum coated region at the bottom of the tubes. The solvents were equilibrated with atmospheric water vapor. The solvent-containing tubes were then incubated for 3 hours at 50° C. The excess solvent was poured off and the tubes were left overnight to allow the residual solvent to evaporate. Three sets of control tubes were prepared. One set was treated with water in the same manner as the organic solvents, while another set was heated in air for the same period as the liquid-treated tubes. A final set of tubes served as an untreated control. The residual capacity of the antiserum-coated tubes to bind the respective radioiodinated tracers was determined by adding a 1 ml solution of the tracer containing 0.01 μCi to each tube containing an antiserum coating specific for that tracer, incubating for 45 minutes at 37° C., carefully decanting the tracer solution and counting the radioactivity bound to the tubes. The percent binding was calculated by dividing the bound counts by the total counts added.

[2] = test system: diphenylhydantoin rabbit antiserum; experiment: Effect of organic solvents on antiserum-coated polypropylene tubes: residual binding of radioiodinated tracer, diphenylhydantoin antiserum; conditions: tracer bound after solvent 3 hours at 50° C., tracer 45 minutes at 37° C.
Experimental: as §1

[3] = test system: thyroxine rabbit antiserum; experiment: Effect of organic solvents on antiserum-coated polypropylene tubes: residual binding of radioiodinated tracer, thyroxine antiserum; conditions: tracer bound after solvent 3 hours at 50° C., tracer 45 minutes at 37° C.
Experimental: as §1

[4] = test system: rabbit anti-cortisol serum; experiment: Competitive radioimmunoassay of cortisol in antiserum-coated plastic tubes (125I-cortisol tracer); assay type: binding
Experimental: Urine samples are prepared for extraction by adding 200 microliters of a well mixed 24-hour urine sample to each of two disposable glass test tubes, one marked "S" and the other "E". The "E" tube is to be used to determine the efficiency of cortisol extraction from the sample. 10 microliters of cortisol standard serum (60 μg%) are mixed with the contents of the "E" tube, and 1.0 ml of chilled methylene chloride is then added to all tubes. The tubes are capped and their contents agitated to aid in the extraction of cortisol into the methylene chloride layer. After separation of the organic phase, duplicate 100 microliter aliquots of the bottom (methylene chloride) layer of each "S" and "E" tube are carefully removed and added to corresponding plastic test tubes coated with rabbit anti-cortisol serum on their lower inner surfaces, also correspondingly labeled "S" and "E". The methylene chloride is then evaporated from the four plastic test tubes by passing a stream of dry air or nitrogen into the tubes or by a mild warming of the extract to about 37° C. The tubes containing dry cortisol residue as prepared above are then assayed as follows.
A set of plastic test tubes coated with rabbit anti-cortisol serum is numbered 1-12. The "S" and "E" tubes from the preparatory steps above are numbered 13-14 and 15-16, respectively. 0.01 ml of the reagents shown in Table 1 below are added to the designated tubes. The cortisol serum blank which is added to each "S" and "E" tube ensures that the protein content of all tubes is equal.
1.0 ml of ^125 I-Cortisol 3-(0-carboxymethyl)oxime-L-tyrosine in pH 7.0-7.2 phosphate buffered saline having an activity of about 0.033 μCi/ml is added to each tube with gentle mixing. All tubes are incubated in a constant temperature water bath for 45 minutes at 37° C. The contents are removed from the tubes by aspirating or decanting and the tubes counted in a gamma counter with the window suitably adjusted for iodine-125.

estriol rabbit antiserum = experiment: Effect of organic solvents on antiserum-coated polypropylene tubes: residual binding of radioiodinated tracer, estriol antiserum; conditions: tracer bound after solvent 3 hours at 50° C., tracer 45 minutes at 37° C.
Experimental: as §1

antitestosterone = experiment: Standard curve for testosterone in antitestosterone-coated polypropylene tubes; assay type: binding; conditions: serum standards 0.1, 0.3, 1, 3 and 10 ng testosterone/ml, ethyl acetate extraction; 45 minutes at 37° C.; semi-logarithmic plot
Experimental: 0.6 ml of serum standards containing 0.1, 0.3, 1, 3 and 10 ng testosterone/ml were mixed with 3 ml of ethyl acetate. The phases were allowed to separate and 0.5 of the ethyl acetate layer was added to each of duplicate antitestosterone-coated tubes. After the ethyl acetate was evaporated under a stream of nitrogen, 1 ml of phosphate buffered saline at pH 7.4 was added to each tube and the testosterone residue dissolved. Five minutes later 0.1 ml of ^125 I-labeled testosterone tracer was added to each tube. After incubation for 45 minutes at 37° C., the solution was aspirated from each tube and the bound radioactivity determined in conventional fashion. […] The plot was satisfactory for use in the assay of testosterone unknowns.

| SMILES | % Binding [1] [%] | % Binding [2] [%] | % Binding [3] [%] | % Binding (estriol rabbit antiserum) [%] | further results |
| --- | --- | --- | --- | --- | --- |
| CC(C)=O [Acetone, acetone] | 55 | 43 | 36 |  |  |
| c1ccccc1 [Benzene, benzene] | 56 | 34 | 52 |  |  |
| C[C@]12CCC(=O)C=C1CC[C@@H]1[C@@H]2[C@@H](O)C[C@@]2(C)[C@H]1CC[C@]2(O)C(=O)CO [Cortisol, cortisol] |  |  |  |  | CPM Bound ([4]; Cortisol Serum Standard, 1.0 μg%, 100 pg/0.01 ml, 45 minutes at 37° C.): 26,030 CPM and 25,305 CPM; CPM Bound ([4]; Cortisol Serum Standard, 3.0 μg%, 300 pg/0.01 ml, 45 minutes at 37° C.): 22,083 CPM and 21,629 CPM; CPM Bound ([4]; Cortisol Serum Standard, 10 μg%, 1000 pg/0.01 ml, 45 minutes at 37° C.): 14,520 CPM and 14,698 CPM; CPM Bound ([4]; Cortisol Serum Standard, 25 μg%, 2000 pg/0.01 ml, 45 minutes at 37° C.): 8,980 CPM and 9,071 CPM; CPM Bound ([4]; Cortisol Serum Standard, 60 μg%, 6000 pg/0.01 ml, 45 minutes at 37° C.): 4,824 CPM and 5,025 CPM; CPM Bound ([4]; urine extract "E" tubes 15-16 (cortisol-spiked), with Cortisol Serum Blank, 0 μg%): 8,009 CPM and 7,526 CPM; CPM Bound ([4]; urine extract "S" tubes 13-14, with Cortisol Serum Blank, 0 μg%): 14,325 CPM and 15,110 CPM |
| CCOCC [Ether, ether] | 55 | 33 | 41 | 38 |  |
| CCOC(C)=O [Ethyl Acetate, ethyl acetate] | 54 | 38 | 41 | 62 |  |
| C[C@]12CC[C@H]3[C@@H](CCC4=CC(=O)CC[C@@]43C)[C@@H]1CC[C@@H]2O [testosterone] |  |  |  |  | standard curve (bound radioactivity), in words (antitestosterone): virtually straight-line standard curve |
